Measured values from US9164103B2, “Monitoring and inhibiting human immunodeficiency virus infection by modulating HMGB1 dependent triggering of HIV-1 replication and persistence” (priority 2008, dated 2015).

Assays:
[1] = test system: iDCs; test: aNK-induced apoptosis of uninfected iDCs (7-AAD assay, NK:DC 5:1); type: cell-based, human; conditions: NK:DC ratio 5:1, 24 h
Procedure: FIGS. 9(a)-(g). aNK-dependent apoptosis of iDCs is TNF-related apoptosis-inducing ligand (TRAIL)-dependent and involves the DR4 receptor. (a) CD56^+ NK cells were purified from the blood of healthy donors. NK cells were maintained in culture with suboptimal concentrations of interleukin-2 (IL-2) (100 ng/ml) (rNK cells) or activated (aNK cells) by the addition PHA (10 μg/ml) and IL-2 (10 μg/ml) to cultures. The intensity of staining with anti-CD56 antibodies allows the distinction between two NK cell populations expressing CD56 highly (CD56^bright cells) and weakly (CD56^dim cells). Data represent the mean±sd of three independent experiments. (b) Membrane TRAIL (mTRAIL) expression by NK cells is determined by flow cytometry with anti-CD56 and -mTRAIL specific antibodies. Data represent one of three independent experiments. […] The proportions of mTRAIL-expressing aNK cells among CD56^bright and CD56^dim populations were determined. […] DR4 expression at the DCs surface is analyzed after 1, 2, 3.5, 6 and 24 h of NK-DC coculture. […] Cell death was then quantified with the 7-AAD assay. […] (f) 24 h cell-free culture supernatants of iDCs, rNK cells, aNK cells (10^6/ml), or cocultures of aNK cells and iDCs (ratio 5:1) were tested for soluble TRAIL (sTRAIL) content. sTRAIL was quantified by ELISA. […] The viability status of DCs was determined by flow cytometry with the 7-AAD assay. […]

[2] = test system: iDCs cocultured with aNK cells; test: aNK-dependent maturation of uninfected iDCs in aNK-iDC coculture (CD86/HLA-DR flow cytometry); type: cell-based, human; conditions: 24 h aNK-iDC coculture, inhibitor 10 μg/ml added at initiation
Procedure: (a) Left panel: iDCs were cultured for 24 h either alone or with aNK cells, in the presence of blocking anti-HMGB1 antibodies (10 μg/ml) or glycyrrhizin (10 μg/ml). The maturation status of DCs was determined by flow cytometry with CD86 and HLA-DR—specific antibodies. Right panel: same experiment, but performed with HIV-1 infected iDCs. Data represent mean±sd of at least three independent experiments, and statistical comparisons were made with the non parametric Mann-Whitney test. * p<0.05. […] NK cells were excluded from the analysis through the co-staining with CD3- and CD56-specific antibodies (CD3^−CD56^+).
To determine the possible involvement of HMGB1 in NK-dependent DC maturation, glycyrrhizin, which is known to interact specifically with soluble HMGB1 molecule31, was used as well as anti-HMGB1 antibodies (FIG. 3a). […] The possible involvement of RAGE during NK-DC cross-talk was evaluated with the same approach, comparing RAGE expression on DCs cocultured with aNK cells and DC cultured alone.
After 6 days of culture in the presence of IL-4 and GM-CSF, iDCs (10^6 cells/ml) were either non stimulated, or stimulated during 48 h with 10 μg/ml LPS (E. coli serotype 026-B6, Sigma-Aldrich) to obtain DC0 cells, or 500 ng/ml of trimeric CD40L (Sigma-Aldrich) to obtain DC1 cells, or 10 μg/ml of LPS and 1 μg/ml PGE2 (Sigma-Aldrich) to obtain DC2 cells. […]

[3] = test system: R5-HIV-1Ba-L; test: HIV-1 replication in infected iDCs (p24 ELISA in culture supernatant); type: cell-based; conditions: for HIV-1 production (p24 in supernatant): 3 days, inhibitor 10 μg/ml
Procedure: FIGS. 6 (a), (b) and (c). Exogenous rh-HMGB1 triggers HIV-1 and HIV-2 replication in iDC. (a) HIV-1-infected iDC were cultured alone or in the presence of aNK cells for 3 days. Rh-HMGB1 (1 μg/ml) was added in some cultures. HIV replication was measured by p24 quantification in culture supernatant (b) HIV1-infected iDC were cultured alone or in the presence of aNK cells for 3 days. Blocking anti-HMGB1 antibodies (10 μg/ml) or glycyrrhizin (10 μg/ml) were added at culture initiation. HIV replication was measured by p24 quantification in culture supernatant. The mean±sd of three independent experiments is shown. Statistical comparisons were made with the non parametric Mann-Whitney test. * p<0.05; (c) HIV-2-infected iDC were cultured alone or in the presence of aNK cells for 3 days. Rh-HMGB1 (1 μg/ml) was added in some cultures. HIV replication was measured by p24 quantification in culture supernatant.
Exogenous HMGB1 was recently reported to increase HIV-1 replication in infected monocytic cell lines38, and to induce in vitro the reactivation of HIV-1 in PBMCs from HIV-1-infected patients under antiretroviral therapy39. Therefore, the question of the role of HMGB1 in the NK-dependent triggering of HIV replication in DCs was addressed. […] To investigate the influence of HMGB1 in the triggering of HIV-1 replication in infected-iDC-aNK cocultures, HMGB1-specific neutralizing antibodies or glycyrrhizin were added to these cocultures and p24 production was measured in the supernatant. […] They also indicate that aNK cell-dependent stimulation of HIV-1 replication in iDCs is mediated by HMGB1.
Virus stock preparation was prepared by amplification of R5-HIV-1Ba-L on MDM from healthy donors. Viral stock was then clarified by centrifugation prior to determination of HIV1 p24 concentration. iDCs were plated in 96-well culture plates at 200,000 cells/well and incubated for 3 hours at 37° C. in a 5% CO2 atmosphere with R5-HIV-1BAL at various concentrations (0.001 to 10 ng p24/ml). Cells were harvested, washed four times with media containing 10% FCS and, when indicated, rNK or aNK cells were added at a NK:DC ratio of 1:5, unless otherwise indicated. NK-DC cocultures lasted 24 h before analysis of the maturation stage of DCs and/or quantification of viral production. In some experiments (FIG. 6), HIV-1 infected iDCs were incubated alone or with aNK cells for 3 days, in the presence of rh-HMGB1 (1 μg/ml) (R&DSystems), and in some cultures in the presence of rabbit antiHMGB1 Abs (10 μg/ml) (Abcam, Cambridge, UK) or Glycyrrhizin (10 μg/ml).
The concentration of HIV-1 in the supernatant of infected cell cultures was determined by measuring the amount of p24 protein by ELISA (Ingen, Belgium). DNA from cells was extracted using the GIAamp DNA Blood Mini Kit (Qiagen, Basel, Switzerland) and quantified HIV-1 proviral load by RT-PCR as described previously54. The frequency of HIV-1-infected cells was determined by flow cytometry to detect intracellular p24 molecule. Cells were surface stained with antibodies specific for CD40 (BD Biosciences, San Jose, Calif.) to target DC and intracellular stained with p24-specific antibodies (Coulter). Stained cells were fixed in 1% PFA, immediately acquired on a FACScalibur (Becton Dickinson) and analyzed with FlowJo software. In some experiments infected DCs were imaged, after immunofluorescence, by laser scanning confocal microscopy.

[4] = test system: HIV-1-infected iDCs; test: Apoptosis of HIV-1-infected iDCs (7-AAD assay); type: cell-based, human
Procedure: Living cells are 7-AAA^−, apoptotic cells 7-AAD^+, and apoptotic debris are 7-AAD^−FSC^low. Dot plots represent one of at least three independent experiments. […] Cell death was then quantified with the 7-AAD assay. The mean±sd of three independent experiments was presented.
(a) iDCs or HIV-1-infected iDCs were cultured alone or in the presence of aNK cells (NK:DC ratio of 5:1). […] Cell death was then quantified with the 7-AAD assay. (b) Same experiments were performed in the presence of blocking anti-HMGB1 antibodies (10 and 15 μg/ml). One representative experiment out of three conducted is shown.
Immature DCs (iDCs) were prepared from sorted monocytes from healthy donors, cultured for 6 days in the presence of IL-4 and GM-CSF. In some experiments, iDCs were infected with R5-HIV-1 (1 ng/ml of p24). Coculture experiments with autologous purified aNK cells (activated by PHA+IL-2) were performed at various NK:DC ratios. The influence of NK-DC interaction on DC's maturation and apoptosis was analyzed using multiparametric flow cytometry, combining 7-AAD staining with membrane and intracellular staining with mAbs specific for HLA-DR, DC-SIGN, CD83, CD86, DR4, mTRAIL, etc.
To investigate the impact of HIV on aNK-induced iDCs' apoptosis, iDCs were infected with R5-HIV-1 (1 ng of p24/ml).

Question: How did the “NK-dependent iDCs apoptosis” value [1] turn out when `C/C=C/[C@H]1O[C@@](O)([C@@H](C)[C@H](O)[C@H](C)[C@H]2OC(=O)/C(OC)=C/C(C)=C/[C@@H](C)[C@@H](O)[C@@H](CC)[C@@H](O)[C@H](C)C/C(C)=C/C=C/[C@@H]2OC)C[C@@H](O[C@H]2C[C@@H](O)[C@H](OC(N)=O)[C@@H](C)O2)[C@@H]1C` [Concanamycin A] was run?
Answer: no effect

Question: For `CC1(C)[C@@H](O[C@H]2O[C@H](C(=O)O)[C@@H](O)[C@H](O)[C@H]2O[C@@H]2O[C@H](C(=O)O)[C@@H](O)[C@H](O)[C@H]2O)CC[C@]2(C)[C@H]3C(=O)C=C4[C@@H]5C[C@@](C)(C(=O)O)CC[C@]5(C)CC[C@@]4(C)[C@]3(C)CC[C@@H]12` [glycyrrhizin], which “proportions of mature DCs (CD86bright HLA-DRbright)” value [2] is on record?
Answer: reduced the proportions of mature DCs

Question: And the HIV-1 replication ([3]; 24 h cultures of infected iDCs, absence of NK cells)?
Answer: decreased significantly HIV-1 replication

Question: And the “HIV-1 production (p24 in supernatant)” value ([3]; infected DC cocultured with aNK cells)?
Answer: abrogated HIV-1 production

Question: And the “HIV-1 production (p24 in supernatant)” value ([3]; infected DC cultured alone)?
Answer: abrogated HIV-1 production

Question: What about the “resistance of HIV-1-infected iDCs to aNK-induced apoptosis” value ([4]; NK:DC ratio 5:1, inhibition assays) of the same molecule?
Answer: found dependent on HMGB1

B1: rhs-TRAIL: recombinant human soluble TRAIL (protein, UniProt P50591 39-281, looked up)
extracellular domain: TNELKQMQDKYSKSGIACFLKEDDSYWDPNDEESMNSPCWQVKWQLRQLVRKMILRTSEETISTVQEKQQNISPLVRERGPQRVAAHITGTRGRSNTLSSPNSKNEKALGRKINSWESSRSGHSFLSNLHLRNGELVIHEKGFYYIYSQTYFRFQEEIKENTKNDKQMVQYIYKYTSYPDPILLMKSARNSCWSKDAEYGLYSIYQGGIFELKENDRIFVSVTNEHLIDMDHEASFFGAFLVG
modifications: extracellular domain
Question: B1 was tested. Which “TRAIL-induced apoptosis of HIV-1-infected DCs” value ([4]; 24 h, 1-1000 ng/ml) did it give?
Answer: still susceptible to TRAIL-induced apoptosis
